Assay results as given in US20240228488A1 (TAKEDA PHARMACEUTICAL COMPANY LIMITED, priority 2021, published 2024).

Tests used:
[1] = molecular target: human activated kallikrein enzyme (Homo sapiens, UniProt P03952); assay: Plasma kallikrein inhibition, fluorogenic PFR-AMC substrate, 500 pM activated kallikrein format; type: biochemical; details: 500 pM activated kallikrein, 300 uM PFR-AMC, 30 min preincubation, 10 min reaction; read-out: Primary Dose Response Assay: Average EC50
Procedure, shortened: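 Fluorescence (ex 380/em 460 nm) is read after 10 min of 300 uM PFR-AMC turnover by 500 pM enzyme at RT. Compounds sit with enzyme for 30 min beforehand. Buffer is Tris (pH 7.5) with EDTA, NaCl, PEG-400 and Triton X-100; EC50 values are banded.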

plasma kallikrein = molecular target: T1, plasma kallikrein (Homo sapiens, UniProt P03952); assay: Neat human plasma assay, FXIIa contact pathway-activated, PFR-AMC substrate; type: biochemical; details: citrated human plasma 78% final, 10 nM human FXIIa, 100 μM PFR-AMC; read-out: Human Plasma Assay: IC90
T1 construct: from tissue
T1 sequence (P03952 391-638 limits assumed): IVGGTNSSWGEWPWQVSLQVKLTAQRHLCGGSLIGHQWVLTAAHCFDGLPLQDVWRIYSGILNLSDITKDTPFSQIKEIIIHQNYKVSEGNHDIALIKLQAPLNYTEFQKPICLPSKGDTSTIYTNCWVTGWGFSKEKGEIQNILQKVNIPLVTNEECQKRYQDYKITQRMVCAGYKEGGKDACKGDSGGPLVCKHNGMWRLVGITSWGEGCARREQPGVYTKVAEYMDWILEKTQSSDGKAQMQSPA
T1 sequence (P03952 20-390 partner limits assumed): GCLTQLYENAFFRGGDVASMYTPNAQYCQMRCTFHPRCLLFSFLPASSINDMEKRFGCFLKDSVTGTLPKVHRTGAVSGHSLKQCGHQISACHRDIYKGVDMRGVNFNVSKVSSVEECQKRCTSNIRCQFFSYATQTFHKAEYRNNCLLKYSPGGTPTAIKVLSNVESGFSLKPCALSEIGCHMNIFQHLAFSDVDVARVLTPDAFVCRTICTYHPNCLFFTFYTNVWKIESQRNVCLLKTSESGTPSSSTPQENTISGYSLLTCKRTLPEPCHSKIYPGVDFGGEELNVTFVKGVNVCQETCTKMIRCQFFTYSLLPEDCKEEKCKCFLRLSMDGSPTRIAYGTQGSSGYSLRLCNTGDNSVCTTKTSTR
Procedure, shortened: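 Compound inhibition of plasma kallikrein measured as PFR-AMC (100 μM) cleavage rate over 5 min at room temperature in 78% citrated human plasma activated with 10 nM FXIIa (Tris pH 7.5 buffer). IC50/IC90 from 4-parameter fit of rate versus inhibitor concentration.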

Chain of human activated kallikrein enzyme (P03952 391-638 limits assumed): as the sequence (P03952 391-638 limits assumed) above
Chain of human activated kallikrein enzyme (P03952 20-390 partner limits assumed): as the sequence (P03952 20-390 partner limits assumed) above

Compound | EC50 [1] [nM] | IC90 (plasma kallikrein) [nM]
Cc1ccnc([C@H]2C[C@@H]2C(=O)Nc2cc(NCc3cn4cc(C5CC5)cc(S(C)(=O)=O)c4n3)ncn2)n1 (racemic) [Example 322, rac-(1S*,2S*)—N-(6-(((6-cyclopropyl-8-(methylsulfonyl)imidazo[1,2-a]pyridin-2-yl)methyl)amino)pyrimidin-4-yl)-2-(4-methylpyrimidin-2-yl)cyclopropane-1-carboxamide] | < 1 | 400 to 1500
O=C(Nc1cc(NCc2cn3cc(C4CC4)ccc3n2)cc(=O)[nH]1)[C@H]1C[C@@H]1c1cc(Cl)ccn1 [Example 343, (1S,2S)-2-(4-chloropyridin-2-yl)-N-(4-(((6-cyclopropylimidazo[1,2-a]pyridin-2-yl)methyl)amino)-6-oxo-1,6-dihydropyridin-2-yl)cyclopropane-1-carboxamide] | < 1 | 1500 to 10000
Cc1ccnc([C@H]2C[C@@H]2C(=O)Nc2cc(N(C)Cc3cn4cc(C5CC5)cc(N5CC(=O)NC5=O)c4n3)ncn2)n1 [Example 375, (1S,2S)-N-(6-(((6-cyclopropyl-8-(2,4-dioxoimidazolidin-1-yl)imidazo[1,2-a]pyridin-2-yl)methyl)(methyl)amino)pyrimidin-4-yl)-2-(4-methylpyrimidin-2-yl)cyclopropane-1-carboxamide] | < 1 | < 400
Cc1ccnc([C@@H]2[C@@H](C(=O)Nc3cc(NCc4cn5cc(C6CC6)cc(N6CC(=O)N(C)C6=O)c5n4)ncn3)C2(F)F)n1 (racemic) [Example 494, rac-(1S*,3S*)-N-(6-(((6-cyclopropyl-8-(3-methyl-2,4-dioxoimidazolidin-1-yl)imidazo[1,2-a]pyridin-2-yl)methyl)amino)pyrimidin-4-yl)-2,2-difluoro-3-(4-methylpyrimidin-2-yl)cyclopropane-1-carboxamide] | < 1 | < 400
O=C(Nc1cc(NCc2cn3cc(C4CC4)cc(N4CCNC4=O)c3n2)ncn1)[C@H]1C[C@@H]1c1cc(Cl)ccn1 [Example 394, (1S,2S)-2-(4-chloropyridin-2-yl)-N-(6-(((6-cyclopropyl-8-(2-oxoimidazolidin-1-yl)imidazo[1,2-a]pyridin-2-yl)methyl)amino)pyrimidin-4-yl)cyclopropane-1-carboxamide] | < 1 | 400 to 1500
Cc1ccnc([C@H]2C[C@@H]2C(=O)Nc2cc(N3C[C@@H](O)C[C@@H]3c3cn4cc(C5CC5)cc(N5CC(=O)NC5=O)c4n3)ncn2)n1 (relative stereo) [Example 474, rac-(1S*,2S*)-N-(6-((2R,4S)-2-(6-cyclopropyl-8-(2,4-dioxoimidazolidin-1-yl)imidazo[1,2-a]pyridin-2-yl)-4-hydroxypyrrolidin-1-yl)pyrimidin-4-yl)-2-(4-methylpyrimidin-2-yl)cyclopropane-1-carboxamide] | < 1 | 400 to 1500
O=C(Nc1cc(NCc2cn3cc(C4CC4)cc(CO)c3n2)ncn1)[C@H]1C[C@@H]1c1cccc(Cl)c1 (racemic) [Example 70, rac-(1S*,2S*)-2-(3-chlorophenyl)-N-(6-(((6-cyclopropyl-8-(hydroxymethyl)imidazo[1,2-α]pyridin-2-yl)methyl)amino)pyrimidin-4-yl)cyclopropane-1-carboxamide] | 1 to 10 | > 48000
N#Cc1ccc(Cl)cc1[C@H]1C[C@@H]1C(=O)Nc1cc(N2C[C@@H](O)C[C@@H]2c2cn3cc(C4CC4)ccc3n2)ncn1 (relative stereo) [Example 477, rac-(1S*,2S*)-2-(5-chloro-2-cyanophenyl)-N-(6-((2R,4S)-2-(6-cyclopropylimidazo[1,2-a]pyridin-2-yl)-4-hydroxypyrrolidin-1-yl)pyrimidin-4-yl)cyclopropane-1-carboxamide] | 1 to 10 | 1500 to 10000
O=C(Nc1cc(NCc2cn3cc(C4CC4)ccc3n2)ccn1)[C@H]1C[C@@H]1c1cc(Cl)ccc1-n1cnnn1 (racemic) [Example 287, rac-(1S*,2S*)-2-(5-chloro-2-(1H-tetrazol-1-yl)phenyl)-N-(4-(((6-cyclopropylimidazo[1,2-a]pyridin-2-yl)methyl)amino)pyridin-2-yl)cyclopropane-1-carboxamide] | < 1 | 10000 to 48000
Cc1nc([C@H]2C[C@@H]2C(=O)Nc2cc(N[C@H](C)c3cn4cc(C5CC5)cc(N5CC(=O)N(C)C5=O)c4n3)ncn2)ncc1F (relative stereo) [Example 492, rac-(-(1S*,2S*)-N-(6-(((R)-1-(6-cyclopropyl-8-(3-methyl-2,4-dioxoimidazolidin-1-yl)imidazo[1,2-a]pyridin-2-yl)ethyl)amino)pyrimidin-4-yl)-2-(5-fluoro-4-methylpyrimidin-2-yl)cyclopropane-1-carboxamide] | < 1 | 400 to 1500
Cc1nc(NC(=O)[C@H]2C[C@@H]2c2ncc(F)c(C)n2)cc(N[C@H](C)c2cn3cc(C4CC4)cc(N4CC(=O)N(C)C4=O)c3n2)n1 (relative stereo) [Example 491, rac-(-(1S*,2S*)-N-(6-(((R)-1-(6-cyclopropyl-8-(3-methyl-2,4-dioxoimidazolidin-1-yl)imidazo[1,2-a]pyridin-2-yl)ethyl)amino)-2-methylpyrimidin-4-yl)-2-(5-fluoro-4-methylpyrimidin-2-yl)cyclopropane-1-carboxamide] | < 1 | 400 to 1500
CC(=O)Nc1cc(C2CC2)cn2cc(CNc3cc(NC(=O)[C@H]4C[C@@H]4c4cccc(Cl)c4)ncn3)nc12 [Example 275, (1S,2S)—N-(6-(((8-acetamido-6-cyclopropylimidazo[1,2-a]pyridin-2-yl)methyl)amino)pyrimidin-4-yl)-2-(3-chlorophenyl)cyclopropane-1-carboxamide] | 1 to 10 | 1500 to 10000
Cc1ccnc([C@H]2C[C@@H]2C(=O)Nc2nc(C)nc(NCc3cn4cc(C5CC5)cc(N5CC(=O)N(C)C5=O)c4n3)n2)n1 (racemic) [Example 525, rac-(1S*,2S*)-N-(4-(((6-cyclopropyl-8-(3-methyl-2,4-dioxoimidazolidin-1-yl)imidazo[1,2-a]pyridin-2-yl)methyl)amino)-6-methyl-1,3,5-triazin-2-yl)-2-(4-methylpyrimidin-2-yl)cyclopropane-1-carboxamide] | < 1 | < 400
Cc1ccnc([C@H]2C[C@@H]2C(=O)Nc2cc(NCc3cn4cc(C5CC5)ccc4n3)ncn2)n1 [Example 381, (1S,2S)-N-(6-(((6-cyclopropylimidazo[1,2-a]pyridin-2-yl)methyl)amino)pyrimidin-4-yl)-2-(4-methylpyrimidin-2-yl)cyclopropane-1-carboxamide] | < 1 | 10000 to 48000

Further lines, results first:

EC50 [1] [nM] | IC90 (plasma kallikrein) [nM] | Compound
1 to 10 | 1500 to 10000 | CN(C)C1CCN(c2cc(C3CC3)cn3cc(CNc4cc(NC(=O)[C@H]5C[C@@H]5c5cccc(Cl)c5)ncn4)nc23)C1 (mixture of isomers) [Example I-13, (1S,2S)-2-(3-chlorophenyl)-N-(6-(((6-cyclopropyl-8-(3-(dimethylamino)pyrrolidin-1-yl)imidazo[1,2-a]pyridin-2-yl)methyl)amino)pyrimidin-4-yl)cyclopropane-1-carboxamide]
< 1 | < 400 | CNCc1cc(C2CC2)cn2cc(CNc3ccnc(NC(=O)[C@H]4C[C@@H]4c4cccc(Cl)c4)c3)nc12 [Example 595, (1S,2S)-2-(3-chlorophenyl)-N-(4-(((6-cyclopropyl-8-((methylamino)methyl)imidazo[1,2-a]pyridin-2-yl)methyl)amino)pyridin-2-yl)cyclopropane-1-carboxamide]
< 1 | < 400 | Cc1ccnc([C@H]2C[C@@H]2C(=O)Nc2cc(OCc3cn4cc(C5CC5)cc(S(C)(=O)=O)c4n3)cnn2)n1 [Example 561, (1S,2S)-N-(5-((6-cyclopropyl-8-(methylsulfonyl)imidazo[1,2-a]pyridin-2-yl)methoxy)pyridazin-3-yl)-2-(4-methylpyrimidin-2-yl)cyclopropane-1-carboxamide]
1 to 10 | 1500 to 10000 | CC(=O)c1cc(C2CC2)cn2cc(CNc3cc(NC(=O)[C@H]4C[C@@H]4c4cccc(Cl)c4)ncn3)nc12 [Example I-207, (1S,2S)-N-(6-(((8-acetyl-6-cyclopropylimidazo[1,2-a]pyridin-2-yl)methyl)amino)pyrimidin-4-yl)-2-(3-chlorophenyl)cyclopropane-1-carboxamide]
1 to 10 | 1500 to 10000 | O=C(Nc1cc(NCc2cn3cc(C4CC4)cc(N4CCN5CCC4C5)c3n2)ncn1)[C@H]1C[C@@H]1c1cccc(Cl)c1 (stereo partly drawn) [Example I-11, (1S,2S)-N-(6-(((8-(1,4-diazabicyclo[3.2.1]octan-4-yl)-6-cyclopropylimidazo[1,2-a]pyridin-2-yl)methyl)amino)pyrimidin-4-yl)-2-(3-chlorophenyl)cyclopropane-1-carboxamide]
< 1 | < 400 | O=C(Nc1cc(NCc2cn3cc(C4CC4)cc(N4CCOC4=O)c3n2)ccn1)[C@H]1C[C@@H]1c1cccc(Cl)c1 [Example I-238, (1S,2S)-2-(3-chlorophenyl)-N-(4-(((6-cyclopropyl-8-(2-oxooxazolidin-3-yl)imidazo[1,2-a]pyridin-2-yl)methyl)amino)pyridin-2-yl)cyclopropane-1-carboxamide]
< 1 | 400 to 1500 | O=C(Nc1cc(NCc2cn3cc(C4CC4)cc(N4CCNCC4=O)c3n2)ncn1)[C@H]1C[C@@H]1c1cccc(Cl)c1 [Example I-647, (1S,2S)-2-(3-chlorophenyl)-N-(6-(((6-cyclopropyl-8-(2-oxopiperazin-1-yl)imidazo[1,2-a]pyridin-2-yl)methyl)amino)pyrimidin-4-yl)cyclopropane-1-carboxamide]
